Test results reported in article PMC6277434, “Discovery of a potent HMG-CoA reductase degrader that eliminates statin-induced reductase accumulation and lowers cholesterol” (Nature Communications, 2018).
“And” between values parts separate entries of the source, which are not always exact repeats. Equal values may be shown once.

Legend:
[1] = target: T1, HMGCR (TM1-8)-GFP (Cricetulus griseus, UniProt P00347); assay: HMGCR (TM1-8)-GFP fluorescent assay (high-content imaging) in CHG cells; details: 16 h, DMSO-treated cells = 100
T1 sequence (P00347 1-346): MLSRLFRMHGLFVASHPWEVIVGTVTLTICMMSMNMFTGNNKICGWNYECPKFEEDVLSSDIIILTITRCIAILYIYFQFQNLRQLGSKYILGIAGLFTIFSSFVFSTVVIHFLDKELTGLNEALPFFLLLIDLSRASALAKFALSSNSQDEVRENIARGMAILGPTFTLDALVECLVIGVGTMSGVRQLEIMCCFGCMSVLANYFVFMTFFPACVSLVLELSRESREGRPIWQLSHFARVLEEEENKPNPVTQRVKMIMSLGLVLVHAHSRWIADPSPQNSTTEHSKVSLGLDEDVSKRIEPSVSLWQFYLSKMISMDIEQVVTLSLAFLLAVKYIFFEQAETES
Protocol: (§2) We thus generated a cell line stably expressing the transmembrane domain of HMGCR fused with green fluorescent protein (GFP) as a reporter (HMGCR (TM1-8)-GFP) (Fig. 2a).
(§3) CHO-7 cells were transfected with pCMV-HMGCR (TM1-8)-GFP using FuGENE HD. Twenty-four hours, cells were switched to medium B supplemented with 5% FBS and selected in the presence of 1 mg ml^−1 G418 for 2 weeks. Surviving colonies were isolated and confirmed for GFP expression by immunoblotting and immunofluorescence. The resulting CHO-7/HMGCR (TM1-8)-GFP stable cell line (CHG) was maintained in medium B supplemented with 5% FBS and 200 μg ml^−1 G418.
(§4) CHG cells were treated as described in figure legends. Briefly, cells were seeded at day 0 in 96-well black plate (3904, Corning) at a density of 1.5 × 10^4 cells per well, in medium B containing with 5% LPDS. Day 1, corresponding compounds were added as figure legends described in medium B with 5% LPDS, 1 μM lovastatin, 50 μM sodium mevalonate for 16 h. Then cells were fixed with 4% paraformaldehyde for 20 min, washed with PBS for three times, and stained with 2 μg ml^−1 Hoechst 33342.
(§5) The fluorescent images (GFP and Hoechst channel) were captured using an Operatta High-Content Imaging System (PerkinElmer) with a ×20 objective. The cytoplasmic GFP fluorescence was measured with the Harmony Software (PerkinElmer). Five random selected filed per well were captured, and about 3000 cells were used to determine the mean cytoplasmic GFP fluorescent intensity per cell after subtracting background GFP intensity. The average GFP intensity of DMSO-treated cells was defined as 100.

[2] = system: LXR signaling pathway; design: method as in earlier work; details: previous studies ref 2 (Yang, C. et al. J. Biol. Chem. 281, 27816-27826 (2006)); cited from earlier work
[3] = system: LXR signaling pathway; assay: RT-qPCR of LXR target genes (SREBP-1c, ABCA1, ABCG8) in Huh-7 cells; format: cell-based, human; details: 16 h
Protocol: Cells were treated as described in corresponding figure legends, then total RNA was extracted from cells or mouse livers using TRI Reagent (T9424, Sigma-Aldrich). Equal amounts of RNA from cells or mice receiving the same treatment were pooled were used for cDNA synthesis with oligo dT and reverse transcriptase MLV (Promega). Gene expression was analyzed by quantitative real-time PCR on a Stratagene Mx30005PTM Q-PCR Systems. The primers used were listed in Supplementary Tables 2–4. […]
pathway. a-c Huh-7 cells were treated with indicated compounds for 16 h and then harvested for total RNA isolation and RT-qPCR. Cells treated with LXR agonist T0901317 w ere used as positive controls. The relative mRNA levels of SREBP -1c (a), ABCA1 (b) and ABCG8 (c) were quantified . GAPDH was the reference gene. The relative mRNA level in DMSO-treated cells was defined as 1. Data are from 3 independent experiments and presented as mean ± SD.
(1 picture or pasted object on this page, not shown here)

[4] = target: T1, HMGCR (TM1-8)-GFP; assay: Immunoblotting of overexpressed HMGCR (TM1-8)-GFP in CHG cells; format: cell-based, hamster; design: corresponding to the amino acids from 1 to 346 of hamster HMGCR; expressed in transfected cells; details: 16 h, DMSO = 100
Protocol: Fig. 2 A reporting system that measures HMGCR degradation. a Schematic of the HMGCR (TM1-8)-GFP fusion protein. […] Data are from three independent experiments and presented as mean ± SD. Source data are provided as a Source Data File.
(§1) Cells were harvested and homogenized in the RIPA buffer (50 mM Tris-HCl, pH 8.0, 150 mM NaCl, 2 mM MgCl2, 1.5% NP-40, 0.1% SDS, and 0.5% sodium deoxycholate) supplemented with protease cocktail inhibitor, 10 μM MG-132, 10 μg ml^−1 leupeptin and 1 mM phenylmethylsulfonyl fluoride. The protein concentrations of lysates were determined using BCA method (Beyotime). Samples were mixed with the membrane protein solubilization buffer (62.5 mM Tris-HCl, pH 6.8, 15% SDS, 8 M urea, 10% glycerol, and 100 mM DTT) plus the 4× loading buffer (150 mM Tris-HCl, pH 6.8, 12% SDS, 30% glycerol, 6% 2-mercaptoethanol, and 0.02% bromophenol blue) and incubated for 30 min at 37 °C. Proteins were resolved by SDS-PAGE and transferred to nitrocellulose membranes (GE Healthcare). Immnoblots were blocked with 5% non-fat milk in TBS containing 0.075% Tween-20 (TBST) and probed with indicated antibodies overnight at 4 °C. After washing in TBST for five times, blots were incubated with HRP-conjugated secondary antibodies for 2 h at room temperature. Immunoreactivity was developed with Clarity Western ECL chemiluminescent substrates (170–5061, Bio-Rad). Western blot images were captured by Amersham Imager 600 (GE Healthcare), and integrated optical intensities of each band were quantified by Image-Pro Plus 6 software (Media Cybernetics). Uncropped blots are shown in Supplementary Figs. 9–13.

[5] = target: T2, HMGCR (Cricetulus griseus, UniProt P00347); assay: Immunoblotting of endogenous HMGCR protein in CHO-7 (or CHG) cells; format: cell-based, Chinese hamster; details: 16 h; for endogenous HMGCR protein level (immunoblot), mean: CHG cells, DMSO = 100
T2 construct: endogenous in cells; host or cells: CHO-7, CHG, SRD-13A, SRD-15
T2 sequence (P00347 1-887): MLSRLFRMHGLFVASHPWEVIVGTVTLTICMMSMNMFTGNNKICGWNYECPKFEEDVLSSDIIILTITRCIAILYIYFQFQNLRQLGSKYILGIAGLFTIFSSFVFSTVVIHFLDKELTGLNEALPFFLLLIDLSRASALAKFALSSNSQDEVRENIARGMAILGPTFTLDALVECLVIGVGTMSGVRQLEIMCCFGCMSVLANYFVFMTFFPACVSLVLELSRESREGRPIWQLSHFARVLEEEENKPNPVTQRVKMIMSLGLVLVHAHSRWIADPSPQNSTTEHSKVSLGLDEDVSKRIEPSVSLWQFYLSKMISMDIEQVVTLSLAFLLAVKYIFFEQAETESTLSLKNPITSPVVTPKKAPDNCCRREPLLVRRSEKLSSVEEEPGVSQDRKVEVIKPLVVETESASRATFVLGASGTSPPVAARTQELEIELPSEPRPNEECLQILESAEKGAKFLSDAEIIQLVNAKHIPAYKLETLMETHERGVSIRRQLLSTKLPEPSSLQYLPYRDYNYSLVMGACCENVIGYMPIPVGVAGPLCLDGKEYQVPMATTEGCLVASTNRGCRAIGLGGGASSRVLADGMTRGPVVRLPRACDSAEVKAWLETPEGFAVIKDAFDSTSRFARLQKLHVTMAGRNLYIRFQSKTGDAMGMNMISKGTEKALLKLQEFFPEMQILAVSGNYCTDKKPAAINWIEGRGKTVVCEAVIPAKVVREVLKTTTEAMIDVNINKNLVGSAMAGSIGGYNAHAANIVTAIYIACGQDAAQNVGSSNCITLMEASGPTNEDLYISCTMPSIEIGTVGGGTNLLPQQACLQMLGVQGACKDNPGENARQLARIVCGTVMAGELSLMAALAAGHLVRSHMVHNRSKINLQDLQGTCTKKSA
Protocol: CHO-7 (Chinese hamster ovary cell, a clone of CHO-K1 cell line selected for growth in LPDS) and Huh7 (a human hepatocellular carcinoma cell line), SRD-13A (a Scap-deficient CHO-7 cell line) and SRD-15 (an Insig-1 and Insig-2-deficient CHO-7 cell line) were generous gifts from Russell Debose-Boyd at UT Southwestern Medical Center, USA. All cells were grown in a monolayer at 37 °C with 5% CO2. Huh7 cells were maintained in medium A supplemented with 10% FBS. CHO-7 and SRD-15 cells were maintained in medium B supplemented with 5% FBS. SRD-13A cells were maintained in medium B with 5% FBS, 5 μg ml^−1 cholesterol, 1 mM sodium mevalonate, 10 μM sodium oleate. No cell lines used in this study were found in the database of commonly misidentified cell lines that is maintained by ICLAC and NCBI Biosample. The cell lines have not been authenticated recently. No test for mycoplasma contamination was performed.
as §1

[6] = target: T1, HMGCR (TM1-8)-GFP
Protocol: as §2, §3, §4, §5

Structure (SMILES): CC(C)CCC[C@@H](C)[C@H]1CC[C@@]2(C)C3=C(CC[C@]12C)[C@@]1(C)CC[C@H](O)C(C)(C)[C@@H]1CC3 [24,25-DHL, 24,25-dihydrolanosterol, reference compound]
- HMGCR (TM1-8)-GFP fluorescent intensity, mean ([1]; 0.001 uM): 100
- HMGCR (TM1-8)-GFP fluorescent intensity, mean ([1]; 0.0078 uM): 100.168
- HMGCR (TM1-8)-GFP fluorescent intensity, mean ([1]; 0.023 uM): 100
- HMGCR (TM1-8)-GFP fluorescent intensity, mean ([1]; 0.078 uM): 97.2588
- HMGCR (TM1-8)-GFP fluorescent intensity, mean ([1]; 0.234 uM): 80.6542
- HMGCR (TM1-8)-GFP fluorescent intensity, mean ([1]; 2.34 uM): 45.713
- HMGCR (TM1-8)-GFP fluorescent intensity, mean ([1]; 15.6 uM): 10.4985
- HMGCR (TM1-8)-GFP fluorescent intensity, mean ([1]; 31.2 uM): 5
- activation of LXR [2]: no effect
- expression of LXR target genes (SREBP-1c, ABCA1 and ABCG8) mRNA [3]: did not activate the LXR target genes
- overexpressed HMGCR (TM1-8)-GFP protein level (anti-GFP immunoblot), mean ([4]; 0.3 uM): 87.2697
- overexpressed HMGCR (TM1-8)-GFP protein level (anti-GFP immunoblot), mean ([4]; 1 uM): 51.2487
- overexpressed HMGCR (TM1-8)-GFP protein level (anti-GFP immunoblot), mean ([4]; 3 uM): 6.898
- endogenous HMGCR protein level (immunoblot), mean ([5]; 0.3 uM): 73.3548
- endogenous HMGCR protein level (immunoblot), mean ([5]; 1 uM): 35.9866
- endogenous HMGCR protein level (immunoblot), mean ([5]; 3 uM): 7.195
- EC50 ([5]; CHO-7 cells, read-out: EC50 to decrease endogenous HMGCR (dose–response immunoblotting)): 1600 nM
- EC50 [6]: ~1500 nM and 1500 nM
